Among the data in ChEMBL document CHEMBL1133887, “Anti-influenza virus activities of 2-alkoxyimino-n-(2-isoxazolin-3-ylmethyl)acetamides” (Bioorg Med Chem Lett, 2001) are EC50 and CC50 values, retold here.

Assay [1] in a line: Antiviral activity against A/WSN/33 strain of influenza virus (H1N1 subtype) in MDBK cells using cell protection assay; expressed as 10-100 ppm. The class given is functional, cell-based. The note with it: Bos taurus.
Assay [2] is described as follows: Evaluated for cytotoxic activity in MDBK cells. Type of assay: functional. The note with it: Bos taurus.
The next assay can be described thus: cells. The class given is functional, cell-based. As to conditions: Bos taurus, MDBK.
The nature of assay [3]: Antiviral activity against A/WSN/33 strain of influenza virus (H1N1 subtype) in MDBK cells using cell protection assay; expressed as 1-10 ppm. The class given is functional, cell-based. As to conditions: Bos taurus.
Assay [4] in a line: The compound was evaluated for cytotoxic activity in MDBK cells; expressed as >100 ppm. Type of assay: functional. As to conditions: Bos taurus.
Assay [5] is described as follows: Antiviral activity against A/WSN/33 strain of influenza virus (H1N1 subtype) in MDBK cells using cell protection assay; expressed as >10-100 ppm. Type of assay: functional, cell-based. The note with it: Bos taurus.
Assay [6] is described as follows: Antiviral activity against A/WSN/33 strain of influenza virus (H1N1 subtype) in MDBK cells using cell protection assay; expressed as 100 ppm. The class given is functional, cell-based. The note with it: Bos taurus.
A short description of assay [7]: Antiviral activity against A/WSN/33 strain of influenza virus (H1N1 subtype) in MDBK cells using cell protection assay. The class given is functional, cell-based. The note with it: Bos taurus.

Each structure is given as a SMILES string. Converted amounts (≈) assume the structure as drawn. Some results are limits rather than exact numbers.

The term EC50 denotes the concentration at which the effect is half-maximal. A higher EC50 goes with a need for much substance. The term CC50 denotes the concentration that lowers cell viability or growth by half. Low values mean harm at low concentration, high ones better tolerance by the cells. Take `CO/N=C(/C#N)C(=O)NCC1=NOC(C(C)(C)C)C1` (stereo not given): the EC50 in assay [1] was 100 mg/L (≈ 376 µM). In assay [2], this compound returned a CC50 of over 100 mg/L.
In the assay “cells”, `CO/N=C(/C#N)C(=O)NCC1=NOC(C)(C)C1` gave an EC50 of over 100 mg/L. This compound also had a CC50 in assay [2] of over 100 mg/L.
In “cells”, `CO/N=C(\C#N)C(=O)NC1=NOC(C(C)(C)C)C1` (stereo not given) had an EC50 of over 100 mg/L. The same compound came in with a CC50 in assay [2] of over 100 mg/L.
`CC(C)O/N=C(\C#N)C(=O)NCC1=NOC(C(C)(C)C)C1` (stereo not given) showed an EC50 in assay [3] of 10 mg/L (≈ 34 µM). In assay [2], this compound gave a CC50 of over 100 mg/L.
Taken in the same sequence, the figures for `CO/N=C(\C#N)C(=O)NCC1=NOC(C(C)(C)C)C1` (stereo not given) were 10 mg/L (≈ 37.6 µM) and over 100 mg/L.
For `CO/N=C(\C#N)C(=O)NCC1=NOC(C)C1` (stereo not given), a half-maximal effect in assay [1] (EC50) was put at 100 mg/L (≈ 446 µM). This compound showed a 50% cytotoxic concentration (CC50) in assay [4] of over 100 mg/L.
Compound `C=CCO/N=C(\C#N)C(=O)NCC1=NOC(c2ccccc2)(c2ccccc2)C1` registered an EC50 in assay [5] of over 100 mg/L. This compound gave a CC50 in assay [2] of 100 mg/L (≈ 257 µM).
In assay [1], `C=CCO/N=C(\C#N)C(=O)NCc1cc(C(C)(C)C)on1` showed an EC50 of 100 mg/L (≈ 344 µM). It took 100 mg/L (≈ 344 µM) to reach half-maximal cytotoxicity in assay [2] (CC50).
In turn, `CO/N=C(\C#N)C(=O)NCc1cccnc1` displayed an EC50 in “cells” of over 100 mg/L. For the same compound, in assay [2], the CC50 was over 100 mg/L.
Consider `C=CCO/N=C(/C(=O)NCC1=NOC(C(C)(C)C)C1)c1ccccc1` (stereo not given), for which the EC50 in assay [6] amounted to 100 mg/L (≈ 291 µM). In assay [2], the CC50 was over 100 mg/L.
On to `CO/N=C(\C#N)C(=O)NCC1=NOC(C)(C)C1`, for which the EC50 in assay [1] is 100 mg/L (≈ 420 µM). For the same compound, the 50% cytotoxic concentration (CC50) in assay [2] is over 100 mg/L.
In the case of `CO/N=C(\C#N)C(=O)NCc1cccs1`, the EC50 in “cells” is over 100 mg/L. In assay [2], this compound had a CC50 of over 100 mg/L.
`CO/N=C(\C#N)C(=O)NC(=O)OC(C)(C)C` came in with an EC50 in the assay “cells” of over 100 mg/L. The CC50 in assay [2] was over 100 mg/L.
The compound `CC(C)(C)C1CC(CNC(=O)/C(C#N)=N/OCc2cccnc2)=NO1` (stereo not given) returned an EC50 in “cells” of over 100 mg/L. The same compound had a CC50 in assay [2] of over 100 mg/L.
In assay [3], `CCO/N=C(\C#N)C(=O)NCC1=NOC(C(C)(C)C)C1` (stereo not given) had a half-maximal effective concentration (EC50) of 10 mg/L (≈ 35.7 µM). This compound gave a CC50 in assay [2] of over 100 mg/L.
The compound `CC(C)(C)C1CC(CNC(=O)/C(C#N)=N/OCC#N)=NO1` (stereo not given) yielded an EC50 in assay [1] of 100 mg/L (≈ 343 µM). In assay [2], this compound came in with a cytotoxic concentration (CC50) of over 100 mg/L.
In assay [6], `C=CCO/N=C/C(=O)NCC1=NOC(C(C)(C)C)C1` (stereo not given) displayed an EC50 of 100 mg/L (≈ 374 µM). The compound further registered a CC50 in assay [2] of over 100 mg/L.
`C=CCO/N=C(\C#N)C(=O)NCC1=NOC(c2ccccc2)C1` (stereo not given) yielded a half-maximal effective concentration (EC50) in assay [1] of 100 mg/L (≈ 320 µM). The same compound registered a CC50 in assay [2] of 100 mg/L (≈ 320 µM).
For `C=CCO/N=C(\C)C(=O)NCC1=NOC(C(C)(C)C)C1` (stereo not given), the cytotoxic concentration (CC50) in assay [2] was over 100 mg/L. In addition, in assay [7], it took 6 mg/L (≈ 21.3 µM) to reach a half-maximal effect (EC50).
Consider `CC(C)(C)C1CC(CNC(=O)/C(C#N)=N/OCc2ccccc2)=NO1` (stereo not given), for which the response in assay [1] was half-maximal at 100 mg/L (≈ 292 µM) (EC50). The compound also came in with a CC50 in assay [2] of 100 mg/L (≈ 292 µM).
On to `CO/N=C(\C#N)C(=O)NCC1CC(C(C)(C)C)=NO1` (stereo not given), for which, in assay [1], the EC50 turned out to be 100 mg/L (≈ 376 µM). In addition, the CC50 in assay [2] was over 100 mg/L.
`C=CCO/N=C(\CC)C(=O)NCC1=NOC(C(C)(C)C)C1` (stereo not given): it took 100 mg/L (≈ 339 µM) to reach a half-maximal effect in assay [6] (EC50). The compound further returned a 50% cytotoxic concentration (CC50) in assay [2] of over 100 mg/L.
In turn, `C=CCO/N=C(\C#N)C(=O)NCC1=NOC(C(C)(C)C)C1` (stereo not given) came in with a half-maximal cytotoxic concentration (CC50) in assay [2] of over 100 mg/L. The EC50 in assay [7] stood at 3 mg/L (≈ 10.3 µM).
On to `NC12CC3CC(CC(C3)C1)C2` [AMANTADINE], for which the response in assay [1] was half-maximal at 100 mg/L (≈ 661 µM) (EC50). Moreover, the CC50 in assay [2] was over 100 mg/L.
Compound `CCNC(=O)NC(=O)/C(C#N)=N/OC` [CYMOXANIL] returned an EC50 in “cells” of over 100 mg/L. Also, the CC50 in assay [2] was over 100 mg/L.
